Data: patent publication US20120156180A1, “COMPOSITIONS AND METHODS FOR THE TREATMENT OF KRABBE AND OTHER NEURODEGENERATIVE DISEASES” (The Board of Trustees of the University of Illinois, priority 2009, published 2012)
Entries after “also recorded” stand apart in the source; their conditions may differ. Square brackets hold non-standard residues; d marks the D form. Ends that are not written are not given here. pS = N[C@@H](COP(=O)(O)O)C(=O)O

Tests used:
[1] = test system: EAE, spinal cord injury, and hypoxic injury; conditions: cited from earlier work; for prevention of axonal loss: EAE, spinal cord injury, and hypoxic injury
NCX1 = assay: Immunoblot of NCX1 in spinal cord extracts of flecainide-treated Twitcher mice; type: in vivo, mouse
Method: Tissues were isolated and either frozen for long term storage or directly homogenized in lysis buffer (1 mM PMSF, 2 mM Sodium Orthovanadate, 1 mM NaF, 20 mM Tris HCl pH 7.4, 1% Triton X100, 150 mM NaCl, 5 mM MgCl2, 300 nM Okadaic acid). Samples were then briefly sonicated on ice and spun down at 5000 rpm for 5 min to remove the debris. The amount of protein of the supernatant was then quantified with the Bradford assay (Biorad) and equal amount of proteins were loaded on a 4-12% Bis-Tris gel (Invitrogen). After protein determination, samples were diluted to the same concentration and 10-20 μg of total protein electrophoresed on 4-12% Tris-glycine Nupage (Invitrogen) gels at 80 V in MOPS-SDS running buffer. After at 80 mV the gels were transferred for 2 hour at 120 PVDF on a PVDF membrane (Biorad). The membrane was blocked in 5% milk, 1% BSA, 0.05% Tween 20 in Tris Glycine buffer (blocking solution), then probed with primary antibodies overnight at 4° C. and with the secondary horse radish peroxidase conjugated antibodies for 1 hour at room temperature. […] The membrane was washed for at least one hour after the primary and secondary antibody incubations and developed in the Enhanced Luminescence kit (Thermo Scientific). After exposure, the bands were quantified with the software imageJ and the genes of interest were normalized to the relative loading control.

Twitcher-YFPax mice = assay: Flecainide treatment of Twitcher-YFPax mice: twitching and axonopathic figures by YFP confocal microscopy; type: in vivo, mouse
Description: Bechtold et al., Brain 128:18-28 (2005). […] FIG. 23.
To examine whether protection of axons accompanied the flecainide-mediated amelioration of twitching, spinal cord tissue was collected at P30, and longitudinal sections of the ventral white matter were observed by confocal microscopy for axonal integrity, using the YFP expression as reporter.
Spinal cord and sciatic nerves were removed from treated and non-treated mice, providing tissue for regular confocal microscopy. Paraformaldehyde-fixed longitudinal 50-μm thick cryosections of spinal cord were used. Whole mount preparations of sciatic nerves were used for confocal analysis. Nerve samples were thoroughly Z-imaged for YEP excitation on a Zeiss Meta-confocal microscope. The number of fragmented or discontinued axons per area in samples from Twi-YFPax mice (treated and non-treated) were counted and the mean values compared to those from WT-YFPax controls. Plotting these numbers against postnatal days allowed a determination of when axonal damage starts and the extent of the effect of each neuroprotective treatment at any given time. Axonal integrity was determined by visualizing continuous YFP fluorescence along a single axon over several hundreds of microns, while visualization of axonal fragments, varicosities, and/or swellings were considered a sign of axonal damage.

primary cortical neurons = assay: Primary cortical neurons incubated with psychosine and control sphingolipids (neurites, MTT assay); conditions: for effect on number of neurites: embryonic primary cortical neurons, psychosine 0.1, 1 and 10 μM
Method: Cell cultures of cortical neurons were prepared as previously described. […] E16 pregnant females were sacrificed, the brains of the litter were collected, and the cortex was isolated. The brain was chopped, treated with 0.25% trypsin and then passed through a fire polished pipette. The cells were then plated in DMEM (Mediatech) supplemented with 10% fetal bovine serum (FBS) and, after 2 hours, the medium was changed to Neurobasal medium supplemented with B27. For cell survival, the MTT assay (Chemicon) was performed as indicated by the supplier. Briefly, 5000 cells/well were plated in a 96 well plate, and the stimuli were administered for 24 hours. At the end of the incubation time, the MTT reagent was added and, after 4 hours, the reaction was stopped and the absorbance was read at 570 nm. […] Psychosine, D-Sphingosine, and C6-Ceramide were purchased from Sigma and resuspended in ethanol to the desired concentration.
To test the hypothesis that the presence of psychosine was detrimental to the survival of these neurons, the effect of psychosine treatment on embryonic primary cortical neurons was tested. […] The cytotoxicity of psychosine was determined with the MTT assay, which directly measures mitochondrial activity (FIG. 20L).

PP1 = PP1 enzyme activity assay in cortical neurons incubated with psychosine; type: cell-based, mouse
Method: Samples were processed for quantitation of PP1 with the Molecular Probes RediPlate™ 96 EnzChek® Serine/Threonine Phosphatase Assay Kit (Molecular Probe), as described by the manufacturer. Samples were homogenized in buffer (50 mM Tris-HCl pH 7.0, containing 0.1 mM CaCl2, 125 μg/ml BSA, 0.05% Tween 20) using a IKA Ultra-Turrax T8 homogenizer. An equal amount of protein was loaded in each well of the 96-well plate and fluorescence was read at an excitation of 370 nm and an emission of 460 nm.

PKC = conditions: cited from earlier work
fast axonal transport = assay: Vesicle motility assays in isolated axoplasm; type: biochemical, squid Loligo pealii; conditions: for effect on both modes of axonal transport: 1 μM and 5 μM psychosine perfused; for effect on both antero and retrograde axonal transport rates: 5 μM perfused into extruded axoplasm
Method: Axoplasm was extruded from giant axons of the squid Loligo pealii (Wood Hole Marine Biological Laboratory) as described previously. Szebenyi et al., Neuron 40:41-52 (2003) and Morfini et al., Nat. Neurosci. 9:907-916 (2006). Sphingolipids were diluted into X/2 buffer (175 mM potassium aspartate, 65 mM taurine, 35 mM betaine, 25 mM glycine, 10 mM HEPES, 6.5 mM MgCl2, 5 mM EGTA, 1.5 mM CaCl2 and 0.5 mM glucose, pH 7.2) supplemented with 2-5 mM ATP and 20 μl was added to perfusion chambers. Preparations were analyzed on a Zeiss Axiomat with a 100×, 1.3 n.a. objective, and DIC optics. […]. Organelle velocities were measured with a Photonics Microscopy C2117 video manipulator (Hamamatsu).
To test whether psychosine exerts a role in neurodegeneration by affecting axonal transport, an experiment was performed using axoplasms isolated from giant squid axons, an approach used to examine the effects on antero and retrograde transport rates of a variety of molecules. Morfini et al., Neuromolecular Med. 2:89-99 (2002).
Whether psychosine is a pathogenic effector capable of triggering axonal defects in the Twitcher mouse was assessed. To test psychosine effect on FAT, a model of vesicular transport based on the squid Loligo Pelai was employed. This approach has been extensively characterized to examine the effects of different pathogenic proteins. Morfini et al., Neuromolecular. Med. 2:89-99 (2002). Candidate molecules were perfused in a microchamber containing the axoplasm preparations and the average motility of MBO was measured over a period of time. This model has played a fundamental role in the discovery of kinesin-1S (Brady, Nature 317:73-75 (1985)) and the regulatory mechanisms of FAT (Morfini et al., Neuromolecular. Med. 2:89-99 (2002); Morfini et al., Embo J. 23:2235-2245 (2004); and Ratner et al., J. Neurosci. 18:7717-7726 (1998)) as well as the pathogenic mechanism of various proteins and neurotoxins (Morfini et al., Proc. Natl. Acad. Sci. USA 104:2442-2447 (2007); Morfini et al., Nat. Neurosci. 9:907-916 (2006); and Pigino et al., Proc. Natl. Acad. Sci. USA 106:5907-5912 (2009)). Furthermore, antero and retrograde modes of transport in squid axoplasm are identical to those of intact axons (Lasek and Brady, Nature 316:645-647 (1985)) and all regulatory mechanisms discovered in the squid axoplasm are identical to the mammalian neuron.
Pure preparations of extruded axoplasm isolated from the squid were perfused with different concentrations of psychosine (or related controls) and the speed of MBO was recorded over time.

[2] = test system: psychosine-mediated neurotoxicity; assay: Psychosine-mediated neurotoxicity with GSK3β inhibitor L803; conditions: no experimental details given
[3] = calcium-sensitive dye, Invitrogen; cited from earlier work
[4] = perfusion with control D-Sphingosine

O=C1NC(=O)C(c2ccccc2)(c2ccccc2)N1 [phenytoin]
prevention of axonal loss [1]: successfully prevented major axonal loss

O=C(NCC1CCCCN1)c1cc(OCC(F)(F)F)ccc1OCC(F)(F)F (centres unmarked) [flecainide]
reduction of axonal degeneration ([1]; 30 mg/kg/day, models of demyelinating EAE): sufficient to reduce axonal degeneration | prevention of axonal loss [1]: successfully prevented major axonal loss | sodium channel firing, sodium influx and axon protection ([1]; models of acute and chronic demyelination): successful in reducing excessive firing of sodium channels, decreasing sodium influx, and protecting axons | NCX1 expression in spinal cord (NCX1; early flecainide treatment (P5)): reduced NCX1 expression at early (P20) and late (P30) ages; also recorded: reduced the expression of NCX1 | NCX1 expression in spinal cord (NCX1; late flecainide treatment (P9)): Reduction of NXC1 was not detected; also recorded: no differences in NCX1 expression | onset of twitching (percentage of mice twitching) (Twitcher-YFPax mice; 30 mg/kg body weight/day from P5 or P9 until P30, at 15, 20, 25 and 30 days of age): delayed onset of twitching | protection of axons in the spinal cord (Twitcher-YFPax mice; daily subcutaneous 30 mg/kg/day starting from P2): significantly protected axons in the spinal cord; also recorded: even stronger protective effect | reduction of number of structural pathologies (axonopathic figures per area) to motor axons (Twitcher-YFPax mice; early treatment from P5, 30 mg/kg/day, spinal cord at P30): about 50% | frequency of axonopathic figures in the ventral spinal cord (Twitcher-YFPax mice; late treatment from P9, 30 mg/kg/day, spinal cord at P30): not significantly different from that in vehicle-treated animals

CCCCCCCCCCCCC/C=C/[C@@H](O)[C@H](CO)NC(=O)CCCCC [C6 ceramide, C6-Ceramide]
effect on number of neurites (primary cortical neurons): comparable

CCCCCCCCCCCCC/C=C/[C@@H](O)[C@@H](N)CO[C@@H]1O[C@H](CO)[C@H](O)[C@H](O)[C@H]1O [psychosine, galactosylsphingosine]
PP1 activity (PP1; acutely purified embryonic cortical neurons incubated with psychosine): PP1 activity was induced; also recorded: dose-dependent increase in PP1 activity | PP1 activity (PP1; cortical neurons, incubation with psychosine for 1 hour): PP1 activity increased | inhibition of kinases (PKC): known to inhibit kinases such as PKC | effect on number of neurites (primary cortical neurons): decrease in the number of neurites | cytotoxicity, MTT assay (primary cortical neurons; primary cortical neurons, 1 μM, 24 hours): toxic even at low concentrations | effect on both modes of axonal transport (fast axonal transport): strong inhibition of both modes of axonal transport | effect on both modes of axonal transport (fast axonal transport; listed as Psychosine): strongly inhibited both modes of FAT | effect on both antero and retrograde axonal transport rates (fast axonal transport): rapid reduction of both antero and retrograde axonal transport rates; also recorded: strong inhibitory effect on both antero and retrograde transport

KEAPPAPPQ[pS]P [L803]
effect on psychosine-mediated neurotoxicity [2]: decreased psychosine-mediated neurotoxicity

sphingomyelin
effect on anterograde mode of fast axonal transport (fast axonal transport; 5 μM perfused): inhibited the anterograde mode of fast axonal transport only | effect on retrograde mode of fast axonal transport (fast axonal transport; 5 μM perfused): did not show any effect on the retrograde mode of transport

chondroitin sulfate
effect on both antero and retrograde axonal transport rates (fast axonal transport): no detectable effect

C=C1[C@@H](O)[C@@H]2O[C@]3(CC[C@H](/C=C/[C@@H](C)[C@@H]4CC(C)=C[C@@]5(O[C@H](C[C@@](C)(O)C(=O)O)CC[C@H]5O)O4)O3)CC[C@H]2O[C@@H]1[C@@H](O)C[C@H](C)[C@H]1O[C@@]2(CCCCO2)CC[C@H]1C [okadaic acid]
prevention of psychosine-induced inhibition of fast axonal transport (fast axonal transport; 200 nM okadaic acid co-perfused with 5 μM psychosine): prevented much of the blockage of axonal transport; also recorded: prevented FAT inhibition induced by psychosine

C[S+]([O-])c1ccc(-c2nc(-c3ccncc3)c(-c3ccc(F)cc3)[nH]2)cc1 (centres unmarked) [SB203580]
prevention of GM1-mediated inhibition of anterograde fast axonal transport (fast axonal transport): prevented GM1-mediated inhibition of anterograde fast axonal transport | prevention of sphingomyelin inhibition of anterograde fast axonal transport (fast axonal transport): prevented

CCCCCCCCCCCCC/C=C/[C@@H](O)[C@@H](N)CO [D-Sphingosine]
effect on number of neurites (primary cortical neurons): did not exert any effect | effect on speed of anterograde or retrograde transport (fast axonal transport; control lipid perfused): did not affect the speed of anterograde or retrograde transport | transport rate, anterograde FAT (fast axonal transport; [4]): 1.5-2 mm/sec | transport rate, retrograde transport (fast axonal transport; [4]): 1-1.4 mm/sec

Sulfatides
effect on both antero and retrograde axonal transport rates (fast axonal transport): inhibited both anterograde and retrograde modes of fast axonal transport

fluo-4
Kd [3]: 0.345 µM
